Measured values: patent US8466193B2, “Selective inhibitors of histone deacetylase” (Pharmacyclics, Inc., priority 2008, dated 2013)

Key:
HDAC1 = HDAC1 (Homo sapiens, UniProt Q13547); test: Histone deacetylase activity, continuous trypsin-coupled assay; type: biochemical; settings: 15 minutes preincubation; substrate acetyl-Gly-Ala-(N-acetyl-Lys)-AMC
Description: (§1) HDAC activity was measured using a continuous trypsin-coupled assay that has been described in detail previously (US 20070281934; Schultz et. al., Biochemistry, 43 (34), 11083-11091, 2004; Kim et al. (2006), Methods Mol. Biol., 325:273-283). For inhibitor characterization, measurements were performed in a reaction volume of 100 μL using 96-well assay plates in a fluorescence plate reader. For each isozyme, the HDAC protein in reaction buffer (50 mM HEPES, 100 mM KCl, 0.001% Tween-20, 5% DMSO, pH 7.4, supplemented with bovine serum albumin at concentrations of 0-0.05%, was mixed with inhibitor at various concentrations and allowed to incubate for 15 minutes. Trypsin was added to a final concentration of 50 nM, and acetyl-Gly-Ala-(N-acetyl-Lys)-AMC was added to a final concentration of 25-100 μM to initiate the reaction. After a 30 minute lag time, the fluorescence was measured over a 30 minute time frame using an excitation wavelength of 355 nm and a detection wavelength of 460 nm. The increase in fluorescence with time was used as the measure of the reaction rate. Inhibition constants Ki(app) were obtained using the program BatchKi (Biokin, Pullman, Wash.).

HDAC6 = target: T1, HDAC6 (Homo sapiens, UniProt Q9UBN7); test: as above; type: biochemical; settings: 15 minutes preincubation; substrate acetyl-Gly-Ala-(N-acetyl-Lys)-AMC
T1 sequence (Q9UBN7 1-1215): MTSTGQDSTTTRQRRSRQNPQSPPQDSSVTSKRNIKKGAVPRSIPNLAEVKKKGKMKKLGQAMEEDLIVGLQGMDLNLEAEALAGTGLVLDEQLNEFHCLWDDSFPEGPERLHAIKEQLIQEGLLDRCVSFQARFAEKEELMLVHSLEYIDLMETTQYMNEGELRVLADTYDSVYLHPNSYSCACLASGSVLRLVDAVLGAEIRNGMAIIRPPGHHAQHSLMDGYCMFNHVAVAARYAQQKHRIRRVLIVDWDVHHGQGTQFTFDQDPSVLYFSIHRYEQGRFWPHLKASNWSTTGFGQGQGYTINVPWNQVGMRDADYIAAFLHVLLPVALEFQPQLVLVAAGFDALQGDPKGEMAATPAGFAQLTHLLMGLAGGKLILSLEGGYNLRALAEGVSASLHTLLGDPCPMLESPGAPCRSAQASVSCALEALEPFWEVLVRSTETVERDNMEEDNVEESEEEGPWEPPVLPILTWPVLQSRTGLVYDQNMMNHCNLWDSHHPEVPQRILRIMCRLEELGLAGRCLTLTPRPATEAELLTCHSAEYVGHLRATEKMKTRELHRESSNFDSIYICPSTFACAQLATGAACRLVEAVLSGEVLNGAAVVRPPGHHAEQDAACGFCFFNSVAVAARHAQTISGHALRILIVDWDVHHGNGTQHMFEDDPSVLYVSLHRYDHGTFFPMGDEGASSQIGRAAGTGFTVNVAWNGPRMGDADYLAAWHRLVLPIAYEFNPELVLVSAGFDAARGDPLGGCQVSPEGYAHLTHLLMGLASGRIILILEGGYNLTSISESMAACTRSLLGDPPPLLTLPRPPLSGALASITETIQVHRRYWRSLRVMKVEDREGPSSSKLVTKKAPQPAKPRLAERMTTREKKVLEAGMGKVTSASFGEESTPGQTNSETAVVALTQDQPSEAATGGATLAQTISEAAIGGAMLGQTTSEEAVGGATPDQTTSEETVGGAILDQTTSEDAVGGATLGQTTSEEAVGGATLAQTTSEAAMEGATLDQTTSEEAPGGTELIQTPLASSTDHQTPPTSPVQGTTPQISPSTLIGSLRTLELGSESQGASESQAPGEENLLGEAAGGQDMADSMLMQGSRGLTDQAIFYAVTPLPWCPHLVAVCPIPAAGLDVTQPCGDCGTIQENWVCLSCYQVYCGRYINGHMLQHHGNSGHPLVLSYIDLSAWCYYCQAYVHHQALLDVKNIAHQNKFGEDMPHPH
Description: as §1

HDAC8 = target: T2, HDAC8 (Homo sapiens, UniProt Q9BY41); test: as above; type: biochemical; settings: 15 minutes preincubation; substrate acetyl-Gly-Ala-(N-acetyl-Lys)-AMC
T2 sequence (Q9BY41 1-377): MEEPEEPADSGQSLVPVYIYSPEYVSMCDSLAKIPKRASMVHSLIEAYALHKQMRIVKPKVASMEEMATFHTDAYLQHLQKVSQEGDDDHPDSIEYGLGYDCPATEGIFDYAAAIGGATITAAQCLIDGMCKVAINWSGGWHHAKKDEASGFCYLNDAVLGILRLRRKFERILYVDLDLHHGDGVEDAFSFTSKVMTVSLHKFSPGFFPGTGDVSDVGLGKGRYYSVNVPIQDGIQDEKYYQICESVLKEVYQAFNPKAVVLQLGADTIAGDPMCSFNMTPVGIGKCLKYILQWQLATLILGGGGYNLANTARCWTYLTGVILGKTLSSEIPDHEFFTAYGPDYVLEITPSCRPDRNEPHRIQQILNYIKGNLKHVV
Description: as §1

Jurkat cells = test: Cell proliferation assay, growth inhibition by Alamar Blue; type: cell-based; settings: Jurkat cells treated with compound for 3 days
Description: Cell lines were obtained from DSMZ (Braunschweig, Germany) or ATCC (Manassas, Va.). Cells were grown in RPMI 1640 with 10% fetal bovine serum in a 5% CO2/air incubator at 37° C. Thapsigargin and BAPTA-AM were from Calbiochem (San Diego, Calif.). 3-((dimethylamino)methyl)-N-(2-(4-(hydroxycarbamoyl)phenoxy)ethyl)benzofuran-2-carboxamide is a broad-spectrum HDAC inhibitor which was synthesized as previously described. Other analogs with varying degrees of specificity towards the HDAC isoforms were synthesized as described herein.
Tumor cell lines and human umbilical vein endothelial cells (HUVEC) were cultured for at least two doubling times, and growth was monitored at the end of compound exposure using an Alamar Blue™ (Biosource, Camarillo, Calif.) fluorometric cell proliferation assay as recommended by the manufacturer. Compounds were assayed in triplicate wells in 96-well plates. The concentration required to inhibit cell growth by 50% (GI50) and 95% confidence intervals were estimated from nonlinear regression using a 4-parameter logistic equation. The effect of HDAC8 selective inhibitor compounds on cell proliferation in Jurkat cells was measured. Apoptosis was measured by Annexin-V flow cytommetry. Growth inhibition was measured by Alamar Blue assay. Cells were treated with compound for 3 days.

HDAC2 = HDAC2 (Homo sapiens, UniProt Q92769); test: Histone deacetylase activity, continuous trypsin-coupled assay; type: biochemical; settings: 15 minutes preincubation; substrate acetyl-Gly-Ala-(N-acetyl-Lys)-AMC
Chain of HDAC2 (Q92769 whole entry, species assumed): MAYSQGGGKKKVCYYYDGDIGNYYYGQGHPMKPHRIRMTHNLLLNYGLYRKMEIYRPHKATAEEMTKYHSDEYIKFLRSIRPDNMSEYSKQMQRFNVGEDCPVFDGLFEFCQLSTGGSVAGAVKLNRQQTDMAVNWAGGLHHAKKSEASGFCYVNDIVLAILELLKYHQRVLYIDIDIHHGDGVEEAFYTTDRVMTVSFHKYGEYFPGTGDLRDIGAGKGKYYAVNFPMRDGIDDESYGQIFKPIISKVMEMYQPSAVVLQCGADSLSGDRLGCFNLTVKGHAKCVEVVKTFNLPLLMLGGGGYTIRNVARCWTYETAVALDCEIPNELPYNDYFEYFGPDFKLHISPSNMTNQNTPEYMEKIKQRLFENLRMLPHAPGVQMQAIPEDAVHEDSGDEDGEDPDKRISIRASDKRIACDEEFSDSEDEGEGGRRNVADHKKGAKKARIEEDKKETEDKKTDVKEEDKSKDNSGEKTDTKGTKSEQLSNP
Description: as §1

HDAC10 = target: T3, HDAC10 (Homo sapiens, UniProt Q969S8); test: as above; type: biochemical; settings: 15 minutes preincubation; substrate acetyl-Gly-Ala-(N-acetyl-Lys)-AMC
T3 sequence (Q969S8 1-669): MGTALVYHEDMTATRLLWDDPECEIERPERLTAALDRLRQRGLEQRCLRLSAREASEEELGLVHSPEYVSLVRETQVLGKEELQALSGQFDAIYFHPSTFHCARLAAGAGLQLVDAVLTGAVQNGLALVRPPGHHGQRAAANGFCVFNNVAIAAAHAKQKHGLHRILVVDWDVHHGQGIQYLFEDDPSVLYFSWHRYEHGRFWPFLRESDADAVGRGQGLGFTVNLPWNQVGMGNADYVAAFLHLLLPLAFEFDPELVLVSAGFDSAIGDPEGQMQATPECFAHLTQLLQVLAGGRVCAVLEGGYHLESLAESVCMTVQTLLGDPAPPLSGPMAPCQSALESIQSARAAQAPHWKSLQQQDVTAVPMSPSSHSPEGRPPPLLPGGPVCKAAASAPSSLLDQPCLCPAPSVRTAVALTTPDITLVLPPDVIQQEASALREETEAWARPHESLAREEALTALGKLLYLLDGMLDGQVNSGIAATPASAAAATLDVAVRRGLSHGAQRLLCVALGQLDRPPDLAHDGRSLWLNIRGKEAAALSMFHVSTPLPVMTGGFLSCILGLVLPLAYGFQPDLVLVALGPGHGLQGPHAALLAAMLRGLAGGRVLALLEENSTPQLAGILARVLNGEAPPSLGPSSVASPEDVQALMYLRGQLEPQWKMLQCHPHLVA
Description: as §1

Chain of HDAC1 (Q13547 whole entry, species assumed): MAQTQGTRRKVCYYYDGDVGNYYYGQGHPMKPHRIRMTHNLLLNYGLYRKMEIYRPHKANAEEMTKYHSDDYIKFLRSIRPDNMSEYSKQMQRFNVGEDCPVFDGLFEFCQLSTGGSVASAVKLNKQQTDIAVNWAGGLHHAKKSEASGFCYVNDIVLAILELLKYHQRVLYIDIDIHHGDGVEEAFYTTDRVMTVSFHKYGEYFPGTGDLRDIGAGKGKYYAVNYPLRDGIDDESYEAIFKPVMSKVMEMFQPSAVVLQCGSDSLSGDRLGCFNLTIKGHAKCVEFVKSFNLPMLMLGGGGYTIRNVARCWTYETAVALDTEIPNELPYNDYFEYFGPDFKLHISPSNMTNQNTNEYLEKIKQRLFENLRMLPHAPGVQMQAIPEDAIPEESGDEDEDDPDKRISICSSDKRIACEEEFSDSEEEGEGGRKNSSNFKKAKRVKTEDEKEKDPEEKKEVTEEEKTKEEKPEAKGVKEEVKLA

O=C(NO)c1ccc2ncn(Cc3ccccc3)c2c1 [Compound 1, 3-benzyl-N-hydroxy-3H-benzo[d]imidazole-5-carboxamide] gave an IC50 (HDAC1) of over 10 µM, an IC50 (HDAC6) of 1 to 10 µM and an IC50 (HDAC8) of under 1 µM.

With COc1ccc(Cn2cccc2/C=C/C(=O)NO)cc1 [Compound 203, (E)-3-(1-(4-methoxybenzyl)-1H-pyrrol-2-yl)-N-hydroxyacrylamide] the IC50 (HDAC1) was over 10 µM, the IC50 (HDAC6) was 1 to 10 µM and the IC50 (HDAC8) was under 1 µM.

For O=C(/C=C/c1cccn1CCOc1ccccc1)NO [Compound 232, (E)-N-hydroxy-3-(2-phenoxyethyl-1H-pyrrol-2-yl)acrylamide], the GI50 (Jurkat cells) was 4.98 µM, the IC50 (HDAC1) was over 10 µM and the IC50 (HDAC6) was 1 to 10 µM. The IC50 (HDAC8) was under 1 µM.

In the case of O=C(/C=C/c1cccn1CCOc1cccc(F)c1)NO [Compound 234, (E)-3-(1-(2-(3-fluorophenoxy)ethyl)-1H-pyrrol-2-yl)-N-hydroxyacrylamide], the GI50 (Jurkat cells; Homo sapiens, 72 h) is reported as 4.3 µM, the IC50 (HDAC1) is reported as 1 to 10 µM and the IC50 (HDAC6) is reported as 1 to 10 µM. The IC50 (HDAC8) was under 1 µM.

O=C(NO)c1ccc2ccn(CCc3ccccc3)c2c1 [Compound 302, N-hydroxy-1-(2-phenyl-ethyl)-1H-indole-6-carboxamide] was tested, and the GI50 (Jurkat cells; Homo sapiens, 72 h) was 25.2 µM.

Work on COc1ccc(Cn2ccc3ccc(C(=O)NO)cc32)cc1 [Compound 306, N-hydroxy-1-(4-methoxybenzyl)-1H-indole-6-carboxamide] yielded a GI50 (Jurkat cells; Homo sapiens, 72 h) of 3.6 µM.

COc1ccc(Cn2cc(CN(C)C)c3ccc(C(=O)NO)cc32)cc1 [Compound 307, N-hydroxy-1-(4-methoxybenzyl)-3-(dimethylaminomethyl)-1H-indole-6-carboxamide] showed an IC50 (HDAC8) of under 1 µM and an IC50 (HDAC2) of over 10 µM.

COc1ccc(Cn2cc(CNCc3ccccc3)c3ccc(C(=O)NO)cc32)cc1 [Compound 308, 3-((benzylamino)methyl)-N-hydroxy-1-(4-methoxybenzyl)-1H-indole-6-carboxamide] was tested, and the GI50 (Jurkat cells; Homo sapiens, 72 h) was 5.2 µM.

With COc1ccc(Cn2cc(CN(C)CCc3ccccn3)c3ccc(C(=O)NO)cc32)cc1 [Compound 309, N-hydroxy-1-(4-methoxybenzyl)-3-((methyl(2-(pyridin-2-yl)ethyl)amino)methyl)-1H-indole-6-carboxamide] the GI50 (Jurkat cells; Homo sapiens, 72 h) was 19.2 µM, the IC50 (HDAC8) was under 1 µM and the IC50 (HDAC2) was over 10 µM.

COc1ccc(Cn2ccc3ccc(C(=O)NO)cc32)cn1 [Compound 310, N-hydroxy-1-(2-methoxylpyridin-5-ylmethyl)-1H-indole-6-carboxamide] gave a GI50 (Jurkat cells; Homo sapiens, 72 h) of 16 µM, an IC50 (HDAC8) of under 1 µM and an IC50 (HDAC2) of over 10 µM.

For O=C(NO)c1ccc2ccn(Cc3cccc(NS(=O)(=O)c4ccccc4)c3)c2c1 [Compound 313, N-hydroxy-1-(3-(phenylsulfonamido)benzyl)-1H-indole-6-carboxamide], the GI50 (Jurkat cells; Homo sapiens, 72 h) was 5.2 µM, the IC50 (HDAC8) was under 1 µM and the IC50 (HDAC2) was 1 to 10 µM.

Compound O=C(NO)c1ccc2ccn(Cc3ccc4c(c3)OCO4)c2c1 [Compound 315, N-hydroxy-1-(benzo[d][1,3]dioxol-5-ylmethyl)-1H-indole-6-carboxamide] has an IC50 (HDAC8) of under 1 µM and an IC50 (HDAC2) of over 10 µM.

O=C(NO)c1ccc2ccn(CCOc3ccccc3F)c2c1 [Compound 317, N-hydroxy-1-(2-(2-fluorophenoxy)ethyl)-1H-indole-6-carboxamide] was tested, and the IC50 (HDAC1) was over 10 µM, the IC50 (HDAC6) was 1 to 10 µM and the IC50 (HDAC8) was under 1 µM.

Work on O=C(NO)c1ccc2ccn(CCOc3cccc(F)c3)c2c1 [Compound 318, N-hydroxy-1-(2-(3-fluorophenoxy)ethyl)-1H-indole-6-carboxamide] yielded an IC50 (HDAC1) of over 10 µM, an IC50 (HDAC6) of 1 to 10 µM and an IC50 (HDAC8) of under 1 µM.

Compound O=C(NO)c1ccc2ccn(CCOc3ccccc3Cl)c2c1 [Compound 320, N-hydroxy-1-(2-(2-chlorophenoxy)ethyl)-1H-indole-6-carboxamide] has an IC50 (HDAC1) of over 10 µM, an IC50 (HDAC6) of 1 to 10 µM and an IC50 (HDAC8) of under 1 µM.

Work on O=C(NO)c1ccc2ccn(CCOc3cccc(Cl)c3)c2c1 [Compound 321, N-hydroxy-1-(2-(3-chlorophenoxy)ethyl)-1H-indole-6-carboxamide] yielded an IC50 (HDAC1) of over 10 µM, an IC50 (HDAC6) of 1 to 10 µM and an IC50 (HDAC8) of under 1 µM.

Compound O=C(NO)c1ccc2ccn(CCOc3ccccc3CN3CCOCC3)c2c1 [Compound 326, N-hydroxy-1-(2-(2-(morpholin-4-ylmethyl)phenoxy)ethyl)-1H-indole-6-carboxamide] has an IC50 (HDAC1) of over 10 µM, an IC50 (HDAC6) of over 10 µM and an IC50 (HDAC8) of under 1 µM. The IC50 (HDAC10) was over 10 µM.

For O=C(NO)c1ccc2ccn(CCOc3ccc(CN4CCOCC4)cc3)c2c1 [Compound 328, N-hydroxy-1-(2-(4-(morpholin-4-ylmethyl)phenoxy)ethyl)-1H-indole-6-carboxamide], the GI50 (Jurkat cells; Homo sapiens, 72 h) was 12.5 µM.

With COc1ccc(Cn2ccc3ccc(C(=O)NO)cc32)cc1F [Compound 330, N-hydroxy-1-(3-fluoro-4-methoxybenzyl)-1H-indole-6-carboxamide] the GI50 (Jurkat cells; Homo sapiens, 72 h) was 4.7 µM.
